Source: patent US20070128217A1 (priority 2003, published 2007)

Columns and labels:
[1] = system: recombinant human anti-SARS-CoV antibody 03-018; type: binding; design: Binding of antibody 03-018 to linear peptides of the N protein of SARS-CoV Urbani / Binding of antibody 03-018 to looped/cyclic peptides of the N protein of SARS-CoV Urbani: unit not given here
[2] = system: rabbit serum obtained by immunizing a rabbit with the SARS-CoV strain Frankfurt 1; type: binding; design: Binding of a rabbit serum to linear peptides / Binding of a rabbit serum to looped peptides / Rabbit serum linear peptides / Rabbit serum looped peptides / Binding of a rabbit serum to linear peptides of protein N of SARS-CoV Urbani (Rabbit serum linear peptides) / Binding of a rabbit serum to looped/cyclic peptides of protein N of SARS-CoV Urbani (Rabbit serum looped peptides): unit not given here

Sequence | Binding of antibody 03-018 to linear peptides of the N protein of SARS-CoV Urbani [1] | Binding of antibody 03-018 to looped/cyclic peptides of the N protein of SARS-CoV Urbani [1] | Binding of a rabbit serum to linear peptides of protein N of SARS-CoV Urbani (Rabbit serum linear peptides) [2] | Binding of a rabbit serum to looped/cyclic peptides of protein N of SARS-CoV Urbani (Rabbit serum looped peptides) [2]
KDPQFKDNVILLNKH | 0.1 | 0.2 | 0.2 | 0.5
LDDKDPQFKDNVILL | 0.1 | 0.3 | 0.1 | 0.2
DPQFKDNVILLNKHI | 0.1 | 0.3 | 0.2 | 0.7
AATVLQLPQGTTLPK | 0.1 | 0.2 | 0.3 | 1.2
